Measurements published in ChEMBL document CHEMBL5344465, “Innovations in Pharmacology: Enhancing Bioavailability and Efficacy through Novel Compositions” (ACS Med Chem Lett, 2024).
The source made the active and inactive calls.

Legend:
Format in all cases: functional, cell-based
A 172 [1] = assay: Neuroprotective activity against human A-172 cells assessed as effect on BDNF level
[2] = system: Small intestinal epithelial cell; assay: Antiinflammatory activity against TNFalpha/INFgamma induced human small intestinal epithelial cells assessed as reduction in COX-2 level
[3] = system: Small intestinal epithelial cell; assay: Antiinflammatory activity against TNFalpha/INFgamma induced human small intestinal epithelial cells assessed as reduction in IL-6 level
A 172 [4] = assay: Neuroprotective activity against human A-172 cells assessed as effect on GABA level

Measured: Activity

CN(C)CCc1c[nH]c2cccc(OP(=O)(O)O)c12
active: all assays above

C=CCc1ccc(O)c(OC)c1
active: all assays above
